Measurements as given in patent US10098902B2, “Arginase inhibitors as therapeutics” (Mars, Incorporated, priority 2010, dated 2018).

Columns and labels:
human arginase I (ARG I) = human arginase I (ARG I) (Homo sapiens (Human), UniProt P05089); experiment: Inhibition of arginase I, spectrophotometric urea assay at 530 nm; format: biochemical; conditions: potency rank 1-5; pH 7.4, 37° C., 60 minutes
Experimental: (§1) Inhibition of arginase I (ARG I) and arginase II (ARG II) by Formula I or Formula II compounds is followed spectrophotometrically at 530 nm. The compound to be tested was dissolved in DMSO at an initial concentration 50-fold greater than its final concentration in the cuvette. 10 μl of the stock solution was diluted in 90 μl of the assay buffer that comprises 0.1M sodium phosphate buffer containing 130 mM NaCl, pH 7.4, to which is added ovalbumin (OVA) at a concentration of 1 mg/ml. Solutions of arginase I and II were prepared in 100 mM sodium phosphate buffer, pH 7.4 containing 1 mg/ml of OVA to give an arginase stock solution at a final concentration of 100 ng/ml.
(§2) To each well of a 96-well microtiter plate was added 40 μl of enzyme, 10 μl of an inventive compound and 10 μl of enzyme substrate (L-arginine+manganese sulfate). For wells that were used as positive controls, only the enzyme and its substrate were added, while wells used as negative controls contained only manganese sulfate.
(§3) After incubating the microtiter plate at 37° C. for 60 minutes, 150 μl of a urea reagent obtained by combining equal proportions (1:1) of reagents A and B is added to each well of the microtiter plate to stop the reaction. The urea reagent is made just before use by combining Reagent A (10 mM o-phthaldialdehyde, and 0.4% polyoxyethylene (23) lauryl ether (w/v) in 1.8 M sulfuric acid) with Reagent B (1.3 mM primaquine diphosphate, 0.4% polyoxyethylene (23) lauryl ether (w/v), 130 mM boric acid in 3.6 mM sulfuric acid). After quenching the reaction mixture, the microtiter plate is allowed to stand for an additional 10 minutes at room temperature to allow the color to develop. The inhibition of arginase was computed by measuring the optical density (OD) of the reaction mixture at 530 nm and normalizing the OD value to percent inhibition observed in the control. The normalized OD is then used to generate a dose-response curve by plotting the normalized OD values against log [concentration] and using regression analysis to compute the IC50 values.

[1] = biological target: human arginase II (ARG II) (Homo sapiens (Human), UniProt P78540); experiment: Inhibition of arginase II, spectrophotometric urea assay at 530 nm; format: biochemical; conditions: potency rank 1-5; pH 7.4, 37° C., 60 minutes
Experimental: as §1, §2, §3

human arginase II (ARG II), sequence (P78540 23-354): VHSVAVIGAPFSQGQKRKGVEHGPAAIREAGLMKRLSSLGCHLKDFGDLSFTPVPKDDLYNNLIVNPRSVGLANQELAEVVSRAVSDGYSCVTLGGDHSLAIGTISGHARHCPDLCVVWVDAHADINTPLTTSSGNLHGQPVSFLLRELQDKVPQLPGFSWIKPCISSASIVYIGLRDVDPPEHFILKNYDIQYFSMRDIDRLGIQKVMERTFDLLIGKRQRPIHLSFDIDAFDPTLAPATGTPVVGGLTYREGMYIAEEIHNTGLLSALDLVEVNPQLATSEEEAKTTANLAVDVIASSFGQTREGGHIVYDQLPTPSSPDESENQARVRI
human arginase I (ARG I), sequence (P05089 whole entry): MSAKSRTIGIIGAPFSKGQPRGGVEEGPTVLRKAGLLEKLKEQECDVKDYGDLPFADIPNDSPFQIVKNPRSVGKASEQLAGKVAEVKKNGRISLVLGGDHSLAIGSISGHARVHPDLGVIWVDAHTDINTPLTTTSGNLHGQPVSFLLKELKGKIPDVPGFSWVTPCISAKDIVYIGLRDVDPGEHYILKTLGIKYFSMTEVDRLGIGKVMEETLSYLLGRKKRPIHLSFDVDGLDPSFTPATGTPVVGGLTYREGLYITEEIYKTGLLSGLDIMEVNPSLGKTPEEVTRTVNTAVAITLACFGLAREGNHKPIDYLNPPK

SMILES | IC50 (human arginase I (ARG I)) [nM] | IC50 [1] [nM]
N[C@@]1(C(=O)O)CCO[C@@H]1CCCB(O)O [Example 3, (2R,3S)-3-amino-2-(3-boronopropyl)tetrahydrofuran-3-carboxylic acid] | 1000 to 2000 | 2000 to 5000
N[C@H]1C[C@H](CCCB(O)O)[C@](N)(C(=O)O)C1 [Example 61, (1S,2S,4S)-1,4-diamino-2-(3-boronopropyl)cyclopentanecarboxylic acid] | 251 to 1000 | 251 to 1000
N[C@@]1(C(=O)O)CN(C2CCC(C(=O)O)CC2)C[C@@H]1CCCB(O)O (stereo partly drawn) [Example 30, (3R,4S)-3-amino-4-(3-boronopropyl)-1-(4-carboxycyclohexyl)pyrrolidine-3-carboxylic acid] | 251 to 1000 | 1000 to 2000
N[C@@]1(C(=O)O)CN(C(=O)Nc2ccc(Cl)cc2)C[C@@H]1CCCB(O)O [Example 42, (3R,4S)-3-amino-4-(3-boronopropyl)-1-(4-chlorophenylcarbamoyl)pyrrolidine-3-carboxylic acid] | 251 to 1000 | 251 to 1000
N[C@@]1(C(=O)O)CCC[C@H]1CCCB(O)O [Example 2, (1S,2R)-1-amino-2-(3-boronopropyl)cyclopentanecarboxylic acid] | > 5000 | > 5000
N[C@@]1(C(=O)O)CN(CCCc2ccc(Cl)cc2)C[C@@H]1CCCB(O)O [Example 22, (3R,4S)-3-amino-4-(3-boronopropyl)-1-(3-(4-chlorophenyl)propyl)pyrrolidine-3-carboxylic acid] | 251 to 1000 | 251 to 1000
N[C@@]1(C(=O)O)CN(Cc2ccccc2)C[C@@H]1CCCB(O)O [Example 12, (3R,4S)-3-amino-1-benzyl-4-(3-boronopropyl)pyrrolidine-3-carboxylic acid] | 251 to 1000 | 1000 to 2000
N[C@@]1(C(=O)O)CN(Cc2ccccn2)C[C@@H]1CCCB(O)O [Example 29, (3R,4S)-3-amino-4-(3-boronopropyl)-1-(pyridin-2-ylmethyl)pyrrolidine-3-carboxylic acid] | 1000 to 2000 | 1000 to 2000
N[C@@]1(C(=O)O)CN(Cc2cccnc2)C[C@@H]1CCCB(O)O [Example 13, (3R,4S)-3-amino-4-(3-boronopropyl)-1-(pyridin-3-ylmethyl)pyrrolidine-3-carboxylic acid] | 251 to 1000 | 1000 to 2000
N[C@@]1(C(=O)O)CNC[C@@H]1CCCB(O)O [Example 8, (3R,4S)-3-amino-4-(3-boronopropyl)pyrrolidine-3-carboxylic acid] | 251 to 1000 | 251 to 1000
N[C@@]1(C(=O)O)CNC[C@H]1CCCB(O)O [Example 9, (3R,4R)-3-amino-4-(3-boronopropyl)pyrrolidine-3-carboxylic acid] | 1000 to 2000 | 1000 to 2000
CC(C)CN1C[C@H](CCCB(O)O)[C@](N)(C(=O)O)C1 [Example 11, (3R,4S)-3-amino-4-(3-boronopropyl)-1-isobutylpyrrolidine-3-carboxylic acid] | 251 to 1000 | 1000 to 2000
N[C@@]1(C(=O)O)CN(Cc2ccnc3ccccc23)C[C@@H]1CCCB(O)O [Example 19, (3R,4S)-3-amino-4-(3-boronopropyl)-1-(quinolin-4-ylmethyl)pyrrolidine-3-carboxylic acid] | 251 to 1000 | 251 to 1000
N[C@@]1(C(=O)O)CN(C(=O)CNCc2ccccc2)C[C@@H]1CCCB(O)O [Example 60, (3R,4S)-3-amino-1-(2-(benzylamino)acetyl)-4-(3-boronopropyl)pyrrolidine-3-carboxylic acid] | 251 to 1000 | 1000 to 2000
N[C@@]1(C(=O)O)CN(C(=O)[C@@H]2CCCN2)C[C@@H]1CCCB(O)O [Example 43, (3R,4S)-3-amino-4-(3-boronopropyl)-1-((S)-pyrrolidine-2-carbonyl)pyrrolidine-3-carboxylic acid] | 0.1 to 250 | 251 to 1000
N[C@@]1(C(=O)O)CN(CC2CCNCC2)C[C@@H]1CCCB(O)O [Example 15] | 251 to 1000 | 1000 to 2000
NC(Cc1ccc(C(F)(F)F)cc1)C(=O)N1C[C@H](CCCB(O)O)[C@](N)(C(=O)O)C1 (mixture of isomers) [Example 54, (3R,4S)-3-amino-1-(2-amino-3-(4-(trifluoromethyl)phenyl)propanoyl)-4-(3-boronopropyl)pyrrolidine-3-carboxylic acid] | 251 to 1000 | 1000 to 2000

Next, values leading:

IC50 (human arginase I (ARG I)) [nM] | IC50 [1] [nM] | SMILES
0.1 to 250 | 0.1 to 250 | N[C@@]1(C(=O)O)CN(CC2Cc3c(Cl)cc(Cl)cc3CN2)C[C@@H]1CCCB(O)O (stereo partly drawn) [Example 59, (3R,4S)-3-amino-4-(3-boronopropyl)-1-((5,7-dichloro-1,2,3,4-tetrahydroisoquinolin-3-yl)methyl)pyrrolidine-3-carboxylic acid]
251 to 1000 | 1000 to 2000 | NC[C@H]1C[C@H](CCCB(O)O)[C@](N)(C(=O)O)C1 (racemic) [Example 65, (1S,2S,4S)-1-amino-4-(aminomethyl)-2-(3-boronopropyl)cyclopentanecarboxylic acid]
0.1 to 250 | 0.1 to 250 | N[C@@]1(C(=O)O)CN(CC2Cc3ccc(C(F)(F)F)cc3CN2)C[C@@H]1CCCB(O)O (stereo partly drawn) [Example 55, (3R,4S)-3-amino-4-(3-boronopropyl)-1-((7-(trifluoromethyl)-1,2,3,4-tetrahydroisoquinolin-3-yl)methyl)pyrrolidine-3-carboxylic acid]
0.1 to 250 | 251 to 1000 | Cn1ccnc1CN1C[C@H](CCCB(O)O)[C@](N)(C(=O)O)C1 [Example 31, (3R,4S)-3-amino-4-(3-boronopropyl)-1-((1-methyl-1H-imidazol-2-yl)methyl)pyrrolidine-3-carboxylic acid]
0.1 to 250 | 251 to 1000 | N[C@@]1(C(=O)O)CN(CCN2CCCCC2)C[C@@H]1CCCB(O)O [Example 33, (3R,4S)-3-amino-4-(3-boronopropyl)-1-(2-(piperidin-1-yl)ethyl)pyrrolidine-3-carboxylic acid]
0.1 to 250 | 0.1 to 250 | N[C@@]1(C(=O)O)CN(CCNc2ccc(-c3ccccc3)cc2)C[C@@H]1CCCB(O)O [Example 52, (3R,4S)-3-amino-1-(2-(biphenyl-4-ylamino)ethyl)-4-(3-boronopropyl)pyrrolidine-3-carboxylic acid]
0.1 to 250 | 0.1 to 250 | NCC[C@H]1C[C@H](CCCB(O)O)[C@](N)(C(=O)O)C1 (racemic) [Example 66, (1S,2S,4R)-1-amino-4-(2-aminoethyl)-2-(3-boronopropyl)cyclopentanecarboxylic acid]
0.1 to 250 | 0.1 to 250 | N[C@@]1(C(=O)O)CN(CCCc2ccc(C(=O)O)cc2)C[C@@H]1CCCB(O)O [Example 16, (3R,4S)-3-amino-4-(3-boronopropyl)-1-(3-(4-carboxyphenyl)propyl)pyrrolidine-3-carboxylic acid]
0.1 to 250 | 0.1 to 250 | NC[C@@H]1C[C@H](CCCB(O)O)[C@](N)(C(=O)O)C1 (racemic) [Example 64, (1S,2S,4R)-1-amino-4-(aminomethyl)-2-(3-boronopropyl)cyclopentanecarboxylic acid]
0.1 to 250 | 0.1 to 250 | N[C@@]1(C(=O)O)CN(CCNCc2ccc(Cl)c(Cl)c2)C[C@@H]1CCCB(O)O [Example 41, (3R,4S)-3-amino-4-(3-boronopropyl)-1-(2-(3,4-dichlorobenzylamino)ethyl)pyrrolidine-3-carboxylic acid]
0.1 to 250 | 251 to 1000 | N[C@@]1(C(=O)O)CN(Cc2c[nH]cn2)C[C@@H]1CCCB(O)O [Example 20, (3R,4S)-1-((1H-imidazol-4-yl)methyl)-3-amino-4-(3-boronopropyl)pyrrolidine-3-carboxylic acid]
0.1 to 250 | 0.1 to 250 | N[C@@]1(C(=O)O)CCO[C@H]1CCCB(O)O [Example 4, (2S,3S)-3-amino-2-(3-boronopropyl)tetrahydrofuran-3-carboxylic acid]
0.1 to 250 | 251 to 1000 | CN1CCCCC1CN1C[C@H](CCCB(O)O)[C@](N)(C(=O)O)C1 (stereo partly drawn) [Example 36, (3R,4S)-3-amino-4-(3-boronopropyl)-1-((1-methylpiperidin-2-yl)methyl)pyrrolidine-3-carboxylic acid]
0.1 to 250 | 251 to 1000 | N[C@@]1(C(=O)O)CN(CC2CCCN2)C[C@@H]1CCCB(O)O (stereo partly drawn) [Example 37, (3R,4S)-3-amino-4-(3-boronopropyl)-1-(pyrrolidin-2-ylmethyl)pyrrolidine-3-carboxylic acid]
0.1 to 250 | 251 to 1000 | N[C@@]1(C(=O)O)CN(C(=O)C2Cc3ccccc3CN2)C[C@@H]1CCCB(O)O (mixture of isomers) [Example 53, (3R,4S)-3-amino-4-(3-boronopropyl)-1-(1,2,3,4-tetrahydroisoquinoline-3-carbonyl)pyrrolidine-3-carboxylic acid]
